Values quoted from earlier work as cited in patent publication US20170101678A1, “METHOD FOR SCREENING RISK OF DRUG-INDUCED TOXICITY” (RESEARCH CENTER FOR BIOTECHNOLOGY AND MEDICINE POLICY, priority 2014, published 2017).
Like-named read-outs stand apart in the source and are kept apart here.

Conditions: patients treated with INH

SMILES: NNC(=O)c1ccncc1 [INH, Isoniazid]
- patients developing hepatitis or increased liver readings (CYP2E1 1A/1A genotype): 39%
- patients developing hepatitis or increased liver readings (CYP2E1 1A/1B genotype): 15%
